Assay results taken from paper PMC11267363, “Supramolecular Nanofibers Ameliorate Bleomycin‐Induced Pulmonary Fibrosis by Restoring Autophagy” (Advanced Science, 2024).

Tests used:
MRC-5 cells = assay: Cell migration, invasion and wound-healing assay; assay type: cell-based, human; details: MRC-5 cells stimulated by TGF-β1, peptide 50 µM, 24 h transwell, 48 h wound closure, n = 3
Experimental: For wound healing, cell monolayers were scratched with pipette tip. Cells were incubated with or without 10 ng ml^−1 recombinant human TGF‐β1. Ac‐GFFY‐A2 (50 µM) or A2 (50 µM) was added to the medium 1 h behind to TGF‐β1 stimulation. Images were captured at 0 and 48 h after scratching, and the lesion area was measured with Image J software. Cell invasion assay was performed using transwell chambers (8‐µm pore size, Millipore). Chambers were pre‐coated with Matrigel (30 µg per well, BD). Cells were seeded into the chamber with MEM supplemented with 0.1% FBS, and the lower well was added MEM supplemented with 20% FBS. After incubated for 24 h, non‐invaded cells on the upside were removed with cotton swap, and invaded cells were fixed with 4% paraformaldehyde, stained with 0.5% crystal violet, and then photographed under a microscope. The crystal violet stain was eluted in alcohol and quantified at OD540 nm. […]
MRC-5 cells were seeded on a 6-well plate at a density of 6×10^4 cells per well then cultured for 12 hours to adhere the walls. […] The cells were collected and centrifuged, finally the cellular uptake was measured by flow cytometry. […]
Images were captured at 0 h and 48 h after scratching, and the lesion area was measured with Image J software. […] The crystal violet stain was eluted in alcohol and quantified at OD540 nm. […]

human TRB3 protein = target: T1, human TRB3 protein (Homo sapiens, UniProt Q96RU7); assay: Microscale thermophoresis (MST) binding to TRB3; details: Monolith NT.115, recombinant human TRB3, read-out: binding constant (KD)
T1 construct: purchased Sino Biological 10731-H09B
T1 sequence (Q96RU7 1-358): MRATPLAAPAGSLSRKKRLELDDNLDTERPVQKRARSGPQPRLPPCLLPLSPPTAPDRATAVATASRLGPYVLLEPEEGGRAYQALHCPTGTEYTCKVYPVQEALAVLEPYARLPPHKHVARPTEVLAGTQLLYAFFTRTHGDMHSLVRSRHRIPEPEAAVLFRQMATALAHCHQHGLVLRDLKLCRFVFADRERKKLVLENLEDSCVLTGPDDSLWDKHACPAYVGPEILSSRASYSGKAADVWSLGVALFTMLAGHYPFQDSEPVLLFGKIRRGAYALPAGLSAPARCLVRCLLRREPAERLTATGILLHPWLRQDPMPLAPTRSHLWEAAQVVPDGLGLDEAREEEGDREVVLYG
Experimental: To determine the effects of the self‐assembly factor “Ac‐GFFY” on the secondary structure of the A2 peptide fragment, Circular dichroism (CD) and Fourier transform infrared (FTIR) measurements were performed. […] We subsequently assessed the binding affinity between Ac‐GFFY‐A2 or A2 peptides to the human TRB3 protein or bovine serum albumin (BSA) using microscale thermophoresis (MST) assay, with BSA serving as the control group. […] Therefore, we labeled the peptide with the fluorescence group 7‐nitro‐1,2,3‐benzoxadiazole (NBD) to determine the cellular uptake via flow cytometer. The NBD‐labeled peptide was incubated with both of normal and activated MRC‐5 cells for 4 h, respectively. […] Collectively, under the action of supramolecular self‐assembly, the peptide assemblies with stable secondary conformation can not only be effectively absorbed by MRC‐5 cells but also have the potential to interfere with TRB3/p62 PPIs.
HR‐MS (Varian QFT‐ESI) was used to characterize the molecular weight of compounds. TEM (JEM100CXII) was performed at the Tecnai G2 F20 system, operating at 100 kV. Circular dichroism (CD) spectrum was obtained by a BioLogic (MOS‐450) system. Dynamic light scattering was measured by a ZETAPALS/BI‐200SM (BROOKHAVEN) system. Confocal laser scanning microscopy (CLSM) was measured by Leica TCS SP‐5. Flow cytometry (BD, FACS) was used to detect the cellular uptake. […]

With Ac-GFFYGGWLTRLLQTK-OH [Ac-GFFY-A2] the “rate of migration and invasion” value (MRC-5 cells) was “decline in the rate of migration and invasion” and the Kd (human TRB3 protein) was ~19.1 µM.
